Measurements reported in patent publication EP1746090A1, “Sustituted pyrazoline compounds, having predetermined stereochemistry, for reducing triglycerides in blood” (Laboratorios del Dr. Esteve S.A., priority 2005, dated 2007).

Tested on: male mice B6 Lep ob/ob
Test: In-vivo testing for regulation of triglycerides in blood plasma (obese mice on high fat diet)
Conditions: obese mice fed with high fat diet for 7 weeks; 30 mg/kg/day, p.o., 14 days; whole blood, test strips "Lipid panel"
Source text: This effect is probed in obese mice fed with high fat diet. In the following paragraphs the method of this study is described.
The study is done using six weeks old male mice B6 Lep ob/ob, obtained from Charles River (France). Mice are divided in 3 groups: I (control), II (vehicle), III (example 0).
The animals of the group I receive the standard diet (D-12450B, Research Diets, NJ, USA).
The animals of the groups II and III are fed with a High Fat Diet (D-12492, Research Diets, NJ, USA), in both cases for 7 weeks (References 1 and 2).
The animals of the groups III are fed with a High Fat Diet (D-12492, Research Diets, NJ, USA), in both cases for 7 weeks (References 1 and 2).
At the end of the feeding period of 7 weeks, the treatment period (14 days) is started: Group II mice receive the vehicle (10 ml/kg/day, po, of the aqueous solution of acacia gum, 5% W/V). Group III is administered with 30 mg/kg/day, p.o., of the inventive compound (R)-5-(4-chlorophenyl)-1-(2,4-dichlorophenyl)-4,5-dihydro-pyrazole-3-carboxylic acid according to Example 0. […] The three groups of mice have the same diet than in the previous period.
At the end of the 14 days period of treatment, the blood levels of triglicerides of the animals are determined. […]

Substance: (S)-5-(4-chlorophenyl)-1-(2,4-dichlorophenyl)-4,5-dihydro-pyrazole-3-carboxylic acid [example 0]
- blood levels of triglicerides: inhibitor of high blood levels of triglicerides
